Laboratory results: PMC6956804, “Potent antibacterial activity of MSI-1 derived from the magainin 2 peptide against drug-resistant bacteria” (Theranostics, 2020)
In brackets after ≈: the same amount, converted by molar mass. Peptide text beside a SMILES is read from it.

Assays:
[1] = test system: MSSA D1; test: microbe, parasite or virus in culture; format: cell-based, Staphylococcus aureus; conditions: MSSA D1, clinical strain
Method: (§1) Bacterial strains were purchased from the American Type Culture Collection (ATCC). All clinical strains were isolated from human clinical specimens by the Medical Laboratory Center of Zhongda Hospital (Nanjing, Jiangsu, China). Ndm-1, tem-1, ctx-m-1, shv-1 -carrying bacteria were constructed as previously described. The recombinant bacteria carrying drug-resistant genes were prepared in LB nutrient and induced by IPTG (1 mM) for 4 h before text. Other bacterial strains were respectively prepared in MHB and Columbia Blood Agar Base.
(§2) A standard micro-broth serial dilution assay was used to measure MIC of peptides. MIC was obtained by a microplate reader at 600 nm. MBC was determined as previously described.

[2] = test system: MRSA M108; test: microbe, parasite or virus in culture; format: cell-based, Staphylococcus aureus; conditions: MRSA M108, clinical strain
Method: as §1, §2

[3] = test system: MRSA M101; test: microbe, parasite or virus in culture; format: cell-based, Staphylococcus aureus; conditions: MRSA M101, clinical strain
Method: as §1, §2

[4] = test system: MSSA D4; test: microbe, parasite or virus in culture; format: cell-based, Staphylococcus aureus; conditions: MSSA D4, clinical strain
Method: as §1, §2

[5] = test system: PRSP P105; test: microbe, parasite or virus in culture; format: cell-based, Streptococcus pneumoniae; conditions: PRSP P105, clinical strain
Method: as §1, §2

[6] = test system: PISP F34; test: microbe, parasite or virus in culture; format: cell-based, Streptococcus pneumoniae; conditions: PISP F34, clinical strain
Method: as §1, §2

[7] = test system: PRSP P112; test: microbe, parasite or virus in culture; format: cell-based, Streptococcus pneumoniae; conditions: PRSP P112, clinical strain
Method: as §1, §2

[8] = test system: PISP F22; test: microbe, parasite or virus in culture; format: cell-based, Streptococcus pneumoniae; conditions: PISP F22, clinical strain
Method: as §1, §2

[9] = test system: E. coli A5 (ESBLs (+)); test: microbe, parasite or virus in culture; format: cell-based; conditions: E. coli A5 (ESBLs (+)), clinical strain
Method: as §1, §2

[10] = test system: P. aeruginosa ATCC27853; test: microbe, parasite or virus in culture; format: cell-based
Method: as §1, §2

[11] = test system: P. aeruginosa T8 (ESBLs (+)); test: microbe, parasite or virus in culture; format: cell-based; conditions: P. aeruginosa T8 (ESBLs (+)), clinical strain
Method: as §1, §2

[12] = test system: E. coli A9 (ESBLs (+)); test: microbe, parasite or virus in culture; format: cell-based; conditions: E. coli A9 (ESBLs (+)), clinical strain
Method: as §1, §2

[13] = test system: E. faecalis; test: microbe, parasite or virus in culture; format: cell-based
Method: as §1, §2

[14] = test system: E. cloacae S1 (AmpC (+)); test: microbe, parasite or virus in culture; format: cell-based; conditions: E. cloacae S1 (AmpC (+)), clinical strain
Method: as §1, §2

[15] = test system: S. pneumoniae ATCC 49619; test: microbe, parasite or virus in culture; format: cell-based
Method: as §1, §2

[16] = test system: E. faecium; test: microbe, parasite or virus in culture; format: cell-based
Method: as §1, §2

[17] = test system: E. coli A2 (ESBLs (+)); test: microbe, parasite or virus in culture; format: cell-based; conditions: E. coli A2 (ESBLs (+)), clinical strain
Method: as §1, §2

[18] = test system: S. epidermidis ATCC35984; test: microbe, parasite or virus in culture; format: cell-based
Method: as §1, §2

[19] = test system: Shigella flexneri; test: microbe, parasite or virus in culture; format: cell-based
Method: as §1, §2

[20] = test system: P. aeruginosa T6 (ESBLs (+)); test: microbe, parasite or virus in culture; format: cell-based; conditions: P. aeruginosa T6 (ESBLs (+)), clinical strain
Method: as §1, §2

[21] = test system: P. aeruginosa T1 (ESBLs (+)); test: microbe, parasite or virus in culture; format: cell-based; conditions: P. aeruginosa T1 (ESBLs (+)), clinical strain
Method: as §1, §2

[22] = test system: S. aureus ATCC25923; test: microbe, parasite or virus in culture; format: cell-based
Method: as §1, §2

[23] = test system: E. cloacae S3 (AmpC (+)); test: microbe, parasite or virus in culture; format: cell-based; conditions: E. cloacae S3 (AmpC (+)), clinical strain
Method: as §1, §2

[24] = test system: E. coli ATCC25922; test: microbe, parasite or virus in culture; format: cell-based; conditions: micro-broth serial dilution, 600 nm
Method: as §1, §2

[25] = test system: G- and G+ bacteria; test: Antimicrobial activity, summary over the strains; format: cell-based; conditions: both G- and G+ bacteria, summary of Table 1
Method: as §2

[26] = test system: K. peneumoniae B9 (ESBLs (+)); test: organism not typed; format: cell-based; conditions: K. peneumoniae B9 (ESBLs (+)), clinical strain
Method: as §1, §2

[27] = test system: K. peneumoniae ATCC4352; test: organism not typed; format: cell-based
Method: as §1, §2

[28] = test system: K. peneumoniae B6 (ESBLs (+)); test: organism not typed; format: cell-based; conditions: K. peneumoniae B6 (ESBLs (+)), clinical strain
Method: as §1, §2

[29] = test system: K. peneumoniae B4 (ESBLs (+)); test: organism not typed; format: cell-based; conditions: K. peneumoniae B4 (ESBLs (+)), clinical strain
Method: as §1, §2

[30] = test system: MSSE E3; test: microbe, parasite or virus in culture; format: cell-based, Staphylococcus epidermidis; conditions: MSSE E3, clinical strain
Method: as §1, §2

[31] = test system: MRSE N104; test: microbe, parasite or virus in culture; format: cell-based, Staphylococcus epidermidis; conditions: MRSE N104, clinical strain
Method: as §1, §2

[32] = test system: MSSE E8; test: microbe, parasite or virus in culture; format: cell-based, Staphylococcus epidermidis; conditions: MSSE E8, clinical strain
Method: as §1, §2

[33] = test system: MRSE N109; test: microbe, parasite or virus in culture; format: cell-based, Staphylococcus epidermidis; conditions: MRSE N109, clinical strain
Method: as §1, §2

CC[C@H](C)[C@H](NC(=O)[C@@H](N)Cc1c[nH]c2ccccc12)C(=O)N[C@@H](CCCNC(=N)N)C(=O)N[C@@H](CCCCN)C(=O)N[C@@H](Cc1ccccc1)C(=O)N[C@@H](CC(C)C)C(=O)N[C@@H](CCCCN)C(=O)N[C@@H](CCCNC(=N)N)C(=O)N[C@H](C(=O)N[C@@H](CCCCN)C(=O)N[C@@H](CCCCN)C(=O)N[C@@H](Cc1ccccc1)C(=O)NCC(N)=O)C(C)C [MSI-4] (H-WIRKFLKRVKKFG-NH2)
MIC [1]: 32 µg/mL (≈ 18.8 µM)
MIC [2]: 64 µg/mL (≈ 37.5 µM)
MIC [3]: 32 µg/mL (≈ 18.8 µM)
MIC [4]: 16 µg/mL (≈ 9.38 µM)
MIC [5]: 64 µg/mL (≈ 37.5 µM)
MIC [6]: 16 µg/mL (≈ 9.38 µM)
MIC [7]: 32 µg/mL (≈ 18.8 µM)
MIC [8]: 32 µg/mL (≈ 18.8 µM)
MIC [9]: 16 µg/mL (≈ 9.38 µM)
MIC [10]: 32 µg/mL (≈ 18.8 µM)
MIC [11]: 64 µg/mL (≈ 37.5 µM)
MIC [12]: 32 µg/mL (≈ 18.8 µM)
MIC [13]: 32 µg/mL (≈ 18.8 µM)
MIC [14]: 16 µg/mL (≈ 9.38 µM)
MIC [15]: 16 µg/mL (≈ 9.38 µM)
MIC [16]: 16 µg/mL (≈ 9.38 µM)
MIC [17]: 32 µg/mL (≈ 18.8 µM)
MIC [18]: 16 µg/mL (≈ 9.38 µM)
MIC [19]: 16 µg/mL (≈ 9.38 µM)
MIC [20]: 32 µg/mL (≈ 18.8 µM)
MIC [21]: 16 µg/mL (≈ 9.38 µM)
MIC [22]: 16 µg/mL (≈ 9.38 µM)
MIC [23]: 32 µg/mL (≈ 18.8 µM)
MIC [24]: 16 µg/mL (≈ 9.38 µM)
MIC (range over strains) [25]: 16 to 64 µg/mL
MIC [26]: 16 µg/mL (≈ 9.38 µM)
MIC [27]: 32 µg/mL (≈ 18.8 µM)
MIC [28]: 32 µg/mL (≈ 18.8 µM)
MIC [29]: 64 µg/mL (≈ 37.5 µM)
MIC [30]: 16 µg/mL (≈ 9.38 µM)
MIC [31]: 32 µg/mL (≈ 18.8 µM)
MIC [32]: 16 µg/mL (≈ 9.38 µM)
MIC [33]: 32 µg/mL (≈ 18.8 µM)

CC[C@H](C)[C@H](NC(=O)CN)C(=O)NCC(=O)N[C@@H](CCCCN)C(=O)N[C@@H](Cc1ccccc1)C(=O)N[C@@H](CC(C)C)C(=O)N[C@@H](CCCCN)C(=O)N[C@@H](CCCCN)C(=O)N[C@@H](C)C(=O)N[C@@H](CCCCN)C(=O)N[C@@H](CCCCN)C(=O)N[C@@H](Cc1ccccc1)C(=O)NCC(=O)N[C@@H](CCCCN)C(=O)N[C@@H](C)C(=O)N[C@@H](Cc1ccccc1)C(=O)N[C@H](C(=O)N[C@@H](CCCCN)C(=O)N[C@H](C(=O)N[C@@H](CC(C)C)C(=O)N[C@@H](CCCCN)C(=O)N[C@@H](CCCCN)C(N)=O)[C@@H](C)CC)C(C)C [MSI-78, pexiganan] (H-GIGKFLKKAKKFGKAFVKILKK-NH2)
MIC [1]: 16 µg/mL (≈ 6.46 µM)
MIC [2]: 16 µg/mL (≈ 6.46 µM)
MIC [3]: 32 µg/mL (≈ 12.9 µM)
MIC [4]: 32 µg/mL (≈ 12.9 µM)
MIC [5]: 16 µg/mL (≈ 6.46 µM)
MIC [6]: 32 µg/mL (≈ 12.9 µM)
MIC [7]: 32 µg/mL (≈ 12.9 µM)
MIC [8]: 16 µg/mL (≈ 6.46 µM)
MIC [9]: 16 µg/mL (≈ 6.46 µM)
MIC [10]: 16 µg/mL (≈ 6.46 µM)
MIC [11]: 16 µg/mL (≈ 6.46 µM)
MIC [12]: 16 µg/mL (≈ 6.46 µM)
MIC [13]: 16 µg/mL (≈ 6.46 µM)
MIC [14]: 16 µg/mL (≈ 6.46 µM)
MIC [15]: 16 µg/mL (≈ 6.46 µM)
MIC [16]: 8 µg/mL (≈ 3.23 µM)
MIC [17]: 8 µg/mL (≈ 3.23 µM)
MIC [18]: 16 µg/mL (≈ 6.46 µM)
MIC [19]: 32 µg/mL (≈ 12.9 µM)
MIC [20]: 16 µg/mL (≈ 6.46 µM)
MIC [21]: 32 µg/mL (≈ 12.9 µM)
MIC [22]: 16 µg/mL (≈ 6.46 µM)
MIC [23]: 16 µg/mL (≈ 6.46 µM)
MIC [24]: 16 µg/mL (≈ 6.46 µM)
MIC [26]: 32 µg/mL (≈ 12.9 µM)
MIC [27]: 8 µg/mL (≈ 3.23 µM)
MIC [28]: 16 µg/mL (≈ 6.46 µM)
MIC [29]: 16 µg/mL (≈ 6.46 µM)
MIC [30]: 32 µg/mL (≈ 12.9 µM)
MIC [31]: 32 µg/mL (≈ 12.9 µM)
MIC [32]: 16 µg/mL (≈ 6.46 µM)
MIC [33]: 16 µg/mL (≈ 6.46 µM)
